Source: patent US7786088B2, “Targeting vector to the urokinase plasminogen activator receptor” (University of Iowa Research Foundation, priority 2000, dated 2010)

Assays:
human airway epithelia [1] = experiment: fluid phase endocytosis, uptake of Texas Red dextran; format: cell-based; settings: 0.15 μM peptide applied to apical surface, FIG. 4
Procedure: B. Assay for Fluid Phase Endocytosis: Cells were chilled on ice for 15 minutes and then incubated with […] uPA or 0.15 μM u7-peptide (SEQ ID NO:1) added to the apical surface for 30 minutes at 4° C. Following 3 washes in PBS, cells were incubated with 0.5 mg/ml Texas Red-labeled fixable dextran (3,000 MW, Molecular Probes, Eugene, Oreg.) for 10 minutes at 37° C. Following 3 washes in PBS, cells were fixed with 4% paraformaldehyde, mounted onto class slides with Vectashield (Vector Laboratories, Inc., Burlingame, Calif.), and viewed by fluorescence microscopy. Control cells were incubated with Texas Red-labeled dextran alone to measure basal levels of endocytosis. Monkey tracheal explants were assayed as described for primary cell cultures. To evaluate time-dependent changes, cells were treated as described above with uPA (50 nM) followed by incubations in Texas Red dextran for 5, 10, 30 or 60 minutes at 37° C. […]
B. Effect of uPA on Fluid Phase Endocytosis in Human Airway Epithelia: Stimulation of endocytosis by uPA was determined by measuring the uptake of Texas Red-conjugated dextran, a fluid phase marker. […]

CF airway epithelia = experiment: cAMP-stimulated short-circuit current after Ad2/CFTR-16:CaPi gene transfer; format: cell-based, human; settings: FIG. 5C; for correction of Cl− channel defect (cAMP-stimulated current): CF airway epithelia, Ad2/CFTR-16 in CaPi coprecipitate
Procedure: C. Measurement of Transepithelial Electrical Properties: Epithelia were mounted in modified Ussing chambers (Jim's Instruments, Iowa City, Iowa) and bathed with Ringer's solution on their submucosal side (135 mM NaCl, 2.4 K2HPO4, 0.6 mM […], 1.2 mM CaCl2, 1.2 mM MgCl2, 5 mM Hepes, pH 7.4 and 10 mM dextrose). The mucosal surface was bathed in the identical solution, except that 135 mM NaGluconate replaced the 135 mM NaCl. In this way, a transepithelial Cl^− concentration gradient was established in order to magnify changes in Cl^− transport. The transepithelial Na^+ transport was blocked with mucosal amiloride (10 μM). Mucosal DIDS (100 μM) blocked non-CFTR Cl^− transport. The cAMP agonists, forskolin (10 μM) and IBMX (100 μM) were applied to both solutions to stimulate transepithelial Cl^− transport via CFTR.
The ability of uPA to enhance gene transfer and expression of CFTR in differentiated CF airway epithelia was also tested.

human airway epithelia [2] = experiment: gene transfer by adenovirus:CaPi coprecipitate (β-galactosidase activity); format: cell-based
Procedure: B. Evaluation of Gene Transfer: The apical surface of human airway epithelia was washed once with PBS. Adenovirus was applied at a multiplicity of infection (MOI) of 50 to the apical surface for 30 minutes at 37° C. Adenovirus was applied either alone or in a CaPi coprecipitate as previously described by Fasbender et al., J. Clin. Invest. 102:184-193 (1998) and Lee et al., Hum. Gene Ther. 10:603-13 (1999) (incorporated herein by reference). Following 3 washes, cells were returned to the incubator and assayed for gene transfer 48 hours later. AAV2 was applied at an MOI<1 to the apical surface for 30 minutes at 37° C. AAV2 was applied either alone or on a CaPi coprecipitate formed as previously described by Fasbender et al. and Lee et al. for adenovirus. Following 3 washes, cells were returned to the incubator and assayed for gene transfer 14 days later. Total β-galactosidase activity was measured using a commercially available technique (Galacto-Light, Topix, Bedford, Mass.).

human airway epithelia [3] = experiment: tight junction integrity measured by transepithelial resistance; settings: following uPA or u7 treatment
Procedure: D. uPA Enhancement of Gene Transfer: The ability of uPA to enhance gene transfer by nonspecifically bound vector was tested.

Substance	stimulation of fluid phase endocytosis (human airway epithelia [1])	correction of Cl− channel defect (cAMP-stimulated current) (CF airway epithelia)	correction of Cl− channel defect (cAMP-stimulated current) (CF airway epithelia; listed as u7 peptide)	uptake of a vector expressing CFTR (CF airway epithelia; cystic fibrosis (CF) airway epithelia)	increase in gene transfer compared to the coprecipitate alone (human airway epithelia [2]; apical application before CaPi:adenovirus coprecipitates (uPA 50 nM), assayed 48 hours later, FIG. 5A)	effect on gene transfer by CaPi coprecipitate (in words) (human airway epithelia [2]; compared with uPA)	transepithelial resistance (human airway epithelia [3])
CLNGGTC (listed as Homo sapiens) [u7-peptide]	stimulated fluid phase endocytosis	further enhanced the correction	to a greater extent than the full length uPA	enhanced the uptake	8-10 fold	effect similar to uPA	did not change
CTCGNCL [scrambled peptide, reference compound]	did not	–	–	–	–	–	–
